From patent publication US5643601A, “Phospholipid-and fluorocarbon-containing cosmetic” (Lancaster Group AG, priority 1992, dated 1997)

Tested on: skin
Test: not given
Settings: in words; cited from earlier work
In the case of `OO` [hydrogen peroxide], the “skin irritation / side effects” value is listed as “considerable side effects such as the skin irritations”.

Tested on: not listed separately
Test: O2 solubility of fluorocarbons (Table 1)
Assay type: physicochemical
Settings: not given
For `FC(F)(F)C(F)(F)C(F)(F)C(F)(F)C(F)(F)C(F)(F)C(F)(F)C(F)(F)Br` [Perfluorooctyl bromide], the O2 solubility was 50 ml of O2 /100 ml of Fc. In the case of `FC(F)(F)C(F)(F)C(F)(F)C(F)(F)C(F)(F)C(F)(F)OC(F)(F)C(F)(F)C(F)(F)C(F)(F)C(F)(F)C(F)(F)F` [F-dihexyl ether], the O2 solubility is reported as 45 ml of O2 /100 ml of Fc. With `FC(F)(F)C(F)(F)C(F)(F)C(F)(F)C=CC(F)(F)C(F)(F)C(F)(F)C(F)(F)F` [Bis-F(butyl)ethene] the O2 solubility was 50 ml of O2 /100 ml of Fc. For `FC1(F)OC(F)(F)C(F)(F)N(C(F)(F)C2(F)C(F)(F)C(F)(F)C(F)(F)C(F)(F)C2(F)F)C1(F)F` [F-cyclohexylmethyl-morpholine], the O2 solubility was 42 ml of O2 /100 ml of Fc. For `FC(F)(F)C1(F)C(F)(F)C(F)(F)C(F)(F)C(F)(F)C1(F)F` [F-methylcyclohexane], the O2 solubility was 57 ml of O2 /100 ml of Fc. For `FC1(F)C(F)(F)C(F)(F)C2(F)C(F)(F)C(F)(F)C(F)(F)C(F)(F)C2(F)C1(F)F` (stereo not drawn) [Perfluorodecalin], the O2 solubility was 40 ml of O2 /100 ml of Fc. In the case of `FC(F)(F)C(F)(F)C(F)(F)C(F)(F)C1(F)OC(F)(F)C(F)(F)C1(F)F` (stereo not drawn) [Perfluorobutyl-tetrahydrofuran], the O2 solubility is reported as 52 ml of O2 /100 ml of Fc. For `FC(F)(F)C(F)(F)C(F)(F)C(F)(F)N(C(F)(F)C(F)(F)C(F)(F)C(F)(F)F)C(F)(F)C(F)(F)C(F)(F)C(F)(F)F` [F-tributylamine], the O2 solubility was 40 ml of O2 /100 ml of Fc. With `FC(F)(F)C(F)(F)C(F)(F)C(F)(F)C(F)(F)C(F)(F)F` [F-hexane] the O2 solubility was 58 ml of O2 /100 ml of Fc. For `FC(F)(F)C(F)(F)C(F)(F)N(C(F)(F)C(F)(F)C(F)(F)F)C(F)(F)C(F)(F)C(F)(F)F` [F-tripropylamine], the O2 solubility was 45 ml of O2 /100 ml of Fc.

Tested on: skin
Test: Release of fluorocarbons through the skin
Settings: not given
From the text: (§1) The fluorocarbons can be selected for O2 solubility, partial vapour pressure and lipid solubility according to the specific intended application. The critical solubility temperature of the fluorocarbons (CST) in n-hexane correlates with their solubility in lipids, e.g. cell membranes, and is thus a measure of the rate of release through the skin. […] It is thus possible by mixing various fluorocarbons to set defined CST values which are often not realisable by means of individual compounds.
For `FC(F)(F)C(F)(F)C(F)(F)C(F)(F)C(F)(F)C(F)(F)C(F)(F)C(F)(F)Br` [Perfluorooctyl bromide], the “rate of release through the skin / half-life of release” value was “released relatively rapidly”. With `FC1(F)C(F)(F)C(F)(F)C2(F)C(F)(F)C(F)(F)C(F)(F)C(F)(F)C2(F)C1(F)F` (stereo not drawn) [Perfluorodecalin] the “rate of release through the skin / half-life of release” value was “released relatively rapidly”.

Same assay, conditions: in words; correlated with CST
For `FC(F)(F)C(F)(F)C(F)(F)C(F)(F)N(C(F)(F)C(F)(F)C(F)(F)C(F)(F)F)C(F)(F)C(F)(F)C(F)(F)C(F)(F)F` [F-tributylamine], the “rate of release through the skin / half-life of release” value was “high half-life of release”.

Tested on: not listed separately
Test: Critical solubility temperature (CST) of fluorocarbons in n-hexane
Settings: not given
From the text: as §1
Starting from these values, the desired characteristics for the penetration of the skin with the aid of a cosmetic composition can be selected for mixtures of fluorocarbons.
In the case of `FC(F)(F)C(F)(F)C(F)(F)C(F)(F)C(F)(F)C(F)(F)C(F)(F)C(F)(F)Br` [Perfluorooctyl bromide], the “CST (critical solubility temperature)” value is reported as -24.5 °C. In the case of `FC1(F)C(F)(F)C(F)(F)C2(F)C(F)(F)C(F)(F)C(F)(F)C(F)(F)C2(F)C1(F)F` (stereo not drawn) [Perfluorodecalin], the “CST (critical solubility temperature)” value is reported as 22 °C. For `FC(F)(F)C(F)(F)C(F)(F)N(C(F)(F)C(F)(F)C(F)(F)F)C(F)(F)C(F)(F)C(F)(F)F` [F-tripropylamine], the “CST (critical solubility temperature)” value was 43 °C.

Same assay, conditions: in n-hexane
In the case of `FC(F)(F)C(F)(F)C(F)(F)C(F)(F)C(F)(F)C(F)(F)OC(F)(F)C(F)(F)C(F)(F)C(F)(F)C(F)(F)C(F)(F)F` [F-dihexyl ether], the “CST (critical solubility temperature)” value is reported as 59 °C. In the case of `FC(F)(F)C(F)(F)C(F)(F)C(F)(F)C=CC(F)(F)C(F)(F)C(F)(F)C(F)(F)F` [Bis-F(butyl)ethene], the “CST (critical solubility temperature)” value is reported as 22.5 °C. With `FC1(F)OC(F)(F)C(F)(F)N(C(F)(F)C2(F)C(F)(F)C(F)(F)C(F)(F)C(F)(F)C2(F)F)C1(F)F` [F-cyclohexylmethyl-morpholine] the “CST (critical solubility temperature)” value was 38.5 °C. In the case of `FC(F)(F)C1(F)C(F)(F)C(F)(F)C(F)(F)C(F)(F)C1(F)F` [F-methylcyclohexane], the “CST (critical solubility temperature)” value is reported as 8.2 °C. In the case of `FC(F)(F)C(F)(F)C(F)(F)C(F)(F)C1(F)OC(F)(F)C(F)(F)C1(F)F` (stereo not drawn) [Perfluorobutyl-tetrahydrofuran], the “CST (critical solubility temperature)” value is reported as 29 °C. For `FC(F)(F)C(F)(F)C(F)(F)C(F)(F)N(C(F)(F)C(F)(F)C(F)(F)C(F)(F)F)C(F)(F)C(F)(F)C(F)(F)C(F)(F)F` [F-tributylamine], the “CST (critical solubility temperature)” value was 59 °C.

Tested on: not listed separately
Test: Vapour pressure of fluorocarbons (Table 1)
Assay type: physicochemical
Settings: not given
In the case of `FC(F)(F)C(F)(F)C(F)(F)C(F)(F)C(F)(F)C(F)(F)F` [F-hexane], the “Vapour Pressure P37° C.” value is reported as 414 mm Hg.

Same assay, conditions: 37° C.
In the case of `FC(F)(F)C(F)(F)C(F)(F)C(F)(F)C(F)(F)C(F)(F)C(F)(F)C(F)(F)Br` [Perfluorooctyl bromide], the “Vapour Pressure P37° C.” value is reported as 14 mm Hg. With `FC(F)(F)C(F)(F)C(F)(F)C(F)(F)C(F)(F)C(F)(F)OC(F)(F)C(F)(F)C(F)(F)C(F)(F)C(F)(F)C(F)(F)F` [F-dihexyl ether] the “Vapour Pressure P37° C.” value was 2 mm Hg. With `FC(F)(F)C(F)(F)C(F)(F)C(F)(F)C=CC(F)(F)C(F)(F)C(F)(F)C(F)(F)F` [Bis-F(butyl)ethene] the “Vapour Pressure P37° C.” value was 12.6 mm Hg. For `FC1(F)OC(F)(F)C(F)(F)N(C(F)(F)C2(F)C(F)(F)C(F)(F)C(F)(F)C(F)(F)C2(F)F)C1(F)F` [F-cyclohexylmethyl-morpholine], the “Vapour Pressure P37° C.” value was 4 mm Hg. With `FC(F)(F)C1(F)C(F)(F)C(F)(F)C(F)(F)C(F)(F)C1(F)F` [F-methylcyclohexane] the “Vapour Pressure P37° C.” value was 180 mm Hg. For `FC1(F)C(F)(F)C(F)(F)C2(F)C(F)(F)C(F)(F)C(F)(F)C(F)(F)C2(F)C1(F)F` (stereo not drawn) [Perfluorodecalin], the “Vapour Pressure P37° C.” value was 12.5 mm Hg. In the case of `FC(F)(F)C(F)(F)C(F)(F)C(F)(F)C1(F)OC(F)(F)C(F)(F)C1(F)F` (stereo not drawn) [Perfluorobutyl-tetrahydrofuran], the “Vapour Pressure P37° C.” value is reported as 51 mm Hg. With `FC(F)(F)C(F)(F)C(F)(F)C(F)(F)N(C(F)(F)C(F)(F)C(F)(F)C(F)(F)F)C(F)(F)C(F)(F)C(F)(F)C(F)(F)F` [F-tributylamine] the “Vapour Pressure P37° C.” value was 1 mm Hg. With `FC(F)(F)C(F)(F)C(F)(F)N(C(F)(F)C(F)(F)C(F)(F)F)C(F)(F)C(F)(F)C(F)(F)F` [F-tripropylamine] the “Vapour Pressure P37° C.” value was 18.5 mm Hg.
